Here are results for 21 compounds from patent US20240174649A1, “CULLIN-RING E3 UBIQUITIN LIGASE 4 INHIBITOR COMPOUNDS AND METHODS OF THEIR USE” (ICAHN SCHOOL OF MEDICINE AT MOUNT SINAI, priority 2021, published 2024).

For assay [1], the target named is T1, ROC1-CUL1 CTD (Homo sapiens (Human), UniProt Q13616). As to the kind of experiment: FRET K48 di-Ub synthesis assay. It is filed as biochemical. The settings on record: for E3 inhibition: up to 80 μM. As to the method: The high throughput screen (“HTS”) employed the FRET K48 di-Ub assay as established previously (Wu et al., “Suramin Inhibits Cullin-RING E3 Ubiquitin Ligases,” PNAS 113(14):E2011-2018 (2016), which is hereby incorporated by reference in its entirety) and was carried out at Memorial Sloan Kettering Cancer Center Core Screening Facility. For HTS, the assay was formatted using three reagent addition steps. Library compounds, stored in 10 mM stock plates (DMSO), were transferred into assay plates and each well contains a single compound at 100 μM in 1 μl 10% DMSO. The complete complement of proteins/enzymes (6.5 μl), containing Ub E1 (14 nM), E2 Cdc34 (124 nM), E3 ROC1-CUL1 CTD (0.2 μM), Ub C31-I555 (donor, 0.93 μM), and Ub C64-I647 (receptor, 1.62 μM), in the presence of 33 mM Tris-HCl (pH 7.4), 1.7 mM MgCl2, 0.33 mM DTT, and BSA (0.07 mg/ml), was added to each plate. The concentrations of all five proteins have been determined based on Km measurement as described previously (Wu et al., “Suramin Inhibits Cullin-RING E3 Ubiquitin Ligases,” PNAS 113(14):E2011-2018 (2016), which is hereby incorporated by reference in its entirety). To initiate ubiquitination, ATP (2.5 μl in 2.64 mM) was added and its final concentration was 0.66 mM. The concentration of ATP was set high to minimize identification of nucleotide analogues because the priority of the HTS is to find small molecule modulators specific for E3 ROC1-CUL1 CTD. In this setting, the concentration of compound and DMSO in a given well were 10 μM and 1%, respectively. After incubation at room temperature for 45 min, EDTA (30 mM) was added to terminate the reaction. The reaction was quantified based on the ratio of acceptor:donor fluorescence (excitation 515 nm; donor emission 570 nm; acceptor emission 670 nm) using a Victor high-throughput plate reader (Perkin Elmer).
T1 sequence (Q13616 411-776): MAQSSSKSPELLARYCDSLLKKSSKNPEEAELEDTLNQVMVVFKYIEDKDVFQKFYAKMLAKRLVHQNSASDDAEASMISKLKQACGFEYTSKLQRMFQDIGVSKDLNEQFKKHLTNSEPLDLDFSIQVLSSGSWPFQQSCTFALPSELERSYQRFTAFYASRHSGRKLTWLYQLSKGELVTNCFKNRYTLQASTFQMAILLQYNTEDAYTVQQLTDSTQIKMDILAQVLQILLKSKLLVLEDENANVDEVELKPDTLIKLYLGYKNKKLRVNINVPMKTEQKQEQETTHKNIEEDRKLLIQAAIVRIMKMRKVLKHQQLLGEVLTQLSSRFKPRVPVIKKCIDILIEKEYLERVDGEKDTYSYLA
T1 sequence (P62877 whole entry partner): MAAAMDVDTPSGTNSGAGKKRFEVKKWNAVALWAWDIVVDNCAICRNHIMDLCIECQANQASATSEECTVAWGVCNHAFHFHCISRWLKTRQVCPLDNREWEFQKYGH
(§1) The reaction mixture (15 μl) was assembled onto a 384-well microtiter plate. […] ATP (0.66 mM) was then added to the mix followed by a brief centrifugation to settle down the mixture. The resulting plate was incubated at 30° C. in the Synergy-H1 reader and the fluorescence signal was monitored. Ubiquitination was quantified based on the ratio of acceptor:donor fluorescence (excitation 515 nm; donor emission 570 nm, acceptor emission 670 nm).

For assay [2], the target named is T1, ROC1-CUL1 CTD. The experiment in a line: Ligand binding by MST. How it is done: E3 ligase complex (˜2 nmol) was labeled with fluorescent dye using Monolith NT Protein Labeling Kit Red-NHS (Nanotemper) in the presence of 20 mM MES pH 6.0 and 150 mM NaCl. Excess dye was removed using the included gravity flow column and eluted in storage buffer containing 20 mM Tris-HCl, pH 7.4, 150 mM NaCl, and 10% glycerol. The fluorescent E3 complex (˜0.01-0.06 μM) was mixed with increasing amount of compound in a buffer (20 μl) that contains phosphate-buffered saline, 0.1% TWEEN-20 and 2% prionex. Following incubation at room temperature for 30 min, the reaction mixture loaded into premium coated capillaries and analyzed in the Monolith NT.115 machine (Nanotemper). Thermophoresis was recorded for each sample and binding curve was generated and Kd was calculated using the included software. For reactions where significant ligand specific fluorescence quenching occurred (verified by manufacturer's SDS Denaturation-test protocol), the initial fluorescence quenching data was used directly to calculate the binding curve and Kd.

Another assay addresses E3 (CUL4) (Homo sapiens (Human), UniProt Q13619). As to the kind of experiment: E3 (CUL4) inhibition (Table 1). Type of assay: biochemical. As to the method:
The reaction was incubated for 5 min at 37° C. […] The reaction was incubated for 5 min at room temperature. In the second step (chase), the completed Cdc34b-Ub thiol ester reaction mixture was combined with one third of the completed mono-ubiquitination mixture. The final volume was adjusted to 10 μl with a mix that contained 50 mM Tris-HCl (pH 7.4), 0.5 mM DTT, 0.1 mg/ml of BSA, 5 mM MgCl2, and 2 mM ATP. Compounds were added where indicated. The chase reaction was incubated for 10 min at 37° C. The reaction products were separated by 4-20% SDS-polyacrylamide gel electrophoresis. The reaction scheme was identical to the one described above for FIGS. 12A-B. […] The reaction products, separated by SDS-PAGE, were visualized and analyzed by phospho-imaging using Typhoon 9500 scanner.

For a further assay, the system named is cancer cells. The experiment in a line: Apoptosis, Annexin V flow cytometry. It is filed as cell-based. As to conditions: Table 1. As to the method:
Cells (5×10^4) were seeded 24 hours before compound treatment. Compound was added to the culture media and cells were cultured with the compound for 48 hours. The treated cells were then transferred into 5 ml flow cytometry tubes and the well was washed once with PBS to collect any remaining cells. The cells were then pelleted at 500×g for 5 min with a Beckman CS-6KR centrifuge at 4° C. After removal of supernatant, the cells pellet was washed with Annexin V binding buffer (10 mM Hepes-NaOH, pH 7.4, 150 mM NaCl, 5 mM KCl, 1 mM MgCl2, and 1.8 mM CaCl2). Cells were pelleted once again and incubated in the dark with Annexin V-FITC (2 μg/ml) in binding buffer for 5 min then analyzed using LSRFortessa flow cytometer (BD).
(In flow cytometry, cells or beads pass a laser one at a time.)

In a further assay the target is E3 (CUL1) (Homo sapiens (Human), UniProt Q13616). As to the kind of experiment: E3 (CUL1) inhibition (Table 1). It is filed as biochemical. As to the method:
as §1

[3] abbreviates: Table 9, read-out: IC50 (FRET CUL1 assay).
The mark [4] stands for this setting: Table 9, read-out: E3 Binding Kd (MST with CUL1 CTD).
Where [5] appears, read: Table 5, MST, read-out: E3 binding Kd.

Like-named read-outs stand apart in the source and are kept apart here.

As a reminder, the IC50 is the concentration that inhibits the measured activity by half. What is called Kd is the constant that tells how readily two partners part at equilibrium. The term EC50 denotes the midpoint of the concentration-response curve.

Sequence of E3 (CUL1) (Q13616 whole entry): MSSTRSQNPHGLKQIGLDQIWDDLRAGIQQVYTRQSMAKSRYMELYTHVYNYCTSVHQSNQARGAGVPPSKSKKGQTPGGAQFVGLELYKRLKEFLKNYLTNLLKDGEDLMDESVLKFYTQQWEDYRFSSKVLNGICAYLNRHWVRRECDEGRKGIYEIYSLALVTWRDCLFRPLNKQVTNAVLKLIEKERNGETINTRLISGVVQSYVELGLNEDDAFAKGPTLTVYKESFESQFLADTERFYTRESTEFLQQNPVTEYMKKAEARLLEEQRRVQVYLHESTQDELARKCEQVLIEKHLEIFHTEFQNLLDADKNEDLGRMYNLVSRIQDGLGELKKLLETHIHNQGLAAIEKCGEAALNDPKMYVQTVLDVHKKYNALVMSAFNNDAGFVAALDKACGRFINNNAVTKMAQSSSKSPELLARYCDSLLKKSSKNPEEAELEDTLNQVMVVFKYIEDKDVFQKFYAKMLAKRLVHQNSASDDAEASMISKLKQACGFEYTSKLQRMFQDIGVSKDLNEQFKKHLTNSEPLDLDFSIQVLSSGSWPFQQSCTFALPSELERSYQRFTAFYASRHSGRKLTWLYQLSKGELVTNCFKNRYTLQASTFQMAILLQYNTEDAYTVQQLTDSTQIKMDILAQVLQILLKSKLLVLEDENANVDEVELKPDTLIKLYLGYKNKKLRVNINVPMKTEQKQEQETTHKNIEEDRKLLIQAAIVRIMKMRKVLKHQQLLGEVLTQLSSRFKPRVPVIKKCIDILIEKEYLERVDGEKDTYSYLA
Sequence of E3 (CUL1) (P62877 whole entry partner): as the sequence (P62877 whole entry partner) above
Sequence of E3 (CUL4) (Q13619 whole entry): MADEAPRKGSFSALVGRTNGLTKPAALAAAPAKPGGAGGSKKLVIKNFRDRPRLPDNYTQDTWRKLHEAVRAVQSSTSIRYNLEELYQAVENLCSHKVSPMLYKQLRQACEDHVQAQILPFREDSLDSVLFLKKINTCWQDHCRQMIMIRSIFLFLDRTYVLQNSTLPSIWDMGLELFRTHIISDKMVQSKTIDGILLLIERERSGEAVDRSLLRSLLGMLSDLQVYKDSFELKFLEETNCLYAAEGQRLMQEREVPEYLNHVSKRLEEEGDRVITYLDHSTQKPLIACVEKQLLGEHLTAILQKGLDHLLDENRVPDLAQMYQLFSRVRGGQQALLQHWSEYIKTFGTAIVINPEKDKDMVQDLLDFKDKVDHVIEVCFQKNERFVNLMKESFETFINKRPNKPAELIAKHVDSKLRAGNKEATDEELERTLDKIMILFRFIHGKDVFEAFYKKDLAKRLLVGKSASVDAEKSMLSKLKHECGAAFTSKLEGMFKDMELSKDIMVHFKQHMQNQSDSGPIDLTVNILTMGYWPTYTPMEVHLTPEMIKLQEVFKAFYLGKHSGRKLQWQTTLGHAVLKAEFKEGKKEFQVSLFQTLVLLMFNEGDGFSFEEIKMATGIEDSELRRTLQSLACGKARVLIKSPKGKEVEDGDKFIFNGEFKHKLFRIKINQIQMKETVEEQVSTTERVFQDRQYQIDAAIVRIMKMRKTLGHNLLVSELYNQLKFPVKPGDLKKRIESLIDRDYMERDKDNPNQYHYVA
Sequence of E3 (CUL4) (P62877 whole entry partner): as the sequence (P62877 whole entry partner) above

For `O=c1c(Oc2ccc(Br)cc2)c(C(F)(F)F)oc2c(O)c(O)ccc12`, at ROC1-CUL1 CTD [1] (setting [3]), the IC50 was determined as 3.5 µM. Besides, the Kd at ROC1-CUL1 CTD [2] (setting [4]) was 1.42 ± 0.26 µM.
In the case of `O=c1c(Oc2cccc(Br)c2)c(C(F)(F)F)oc2c(O)c(O)ccc12`, the half-maximal inhibitory concentration (IC50) at ROC1-CUL1 CTD [1] (setting [3]) worked out at 2.4 µM. For the same compound, on ROC1-CUL1 CTD [2] (setting [4]), the Kd worked out at 1.9 ± 0.28 µM.
Turning to `O=c1c(Oc2ccccc2Br)c(C(F)(F)F)oc2c(O)c(O)ccc12`, the IC50 at ROC1-CUL1 CTD [1] (setting [3]) was 2.7 µM. On ROC1-CUL1 CTD [2] (setting [4]), the Kd is 1.95 ± 0.44 µM.
With `O=c1c(Oc2ccc(Br)cc2)c(C(F)(F)F)oc2c(O)c(O)c(Br)cc12`, on ROC1-CUL1 CTD [1] (setting [3]), the half-inhibitory concentration (IC50) came out at 8.3 µM. The Kd at ROC1-CUL1 CTD [2] (setting [4]) was 1.19 ± 0.36 µM.
On to `Cc1oc2c(O)c(O)ccc2c(=O)c1Oc1ccccc1` [#33-2, 7,8-dihydroxy-2-methyl-3-phenoxy-4H-chromen-4-one], for which the “drop in IC50 relative to #33” value at ROC1-CUL1 CTD [1] was 7 fold. Further, on ROC1-CUL1 CTD [1] (Table 5, read-out: E3 inhibition IC50), the IC50 is 8.9 µM. The “reduction of binding Kd relative to #33” value at ROC1-CUL1 CTD [2] turned out to be 8 fold. The Kd on ROC1-CUL1 CTD [2] (setting [5]) was 15 µM.
For `COc1ccc2c(=O)c(Oc3ccccc3)c(C)oc2c1OC` [#33-3, 7,8-dimethoxy-2-methyl-3-phenoxy-4H-chromen-4-one], the “E3 inhibition IC50” value on ROC1-CUL1 CTD [1] (Table 5) is recorded as “No inhibition”. Also, the E3 inhibition result on ROC1-CUL1 CTD [1] was “No inhibition”. The Kd on ROC1-CUL1 CTD [2] (setting [5]) was greater than 500 µM.
Turning to `O=c1c(Oc2ccccc2)c(C(F)(F)F)oc2c3c(ccc12)OCCO3` [#33-5, 8-phenoxy-9-(trifluoromethyl)-2,3-dihydro-7H-[1,4]dioxino[2,3-h]chromen-7-one], on ROC1-CUL1 CTD [1] (Table 5), the “E3 inhibition IC50” value is recorded as “No inhibition”. Moreover, the E3 inhibition entry on ROC1-CUL1 CTD [1] was “No inhibition”. Moreover, at ROC1-CUL1 CTD [2] (setting [5]), the Kd amounted to 48 µM.
Regarding `O=c1c(-c2cnn(Cc3ccc(F)cc3)c2)c(C(F)(F)F)oc2c(O)c(O)ccc12` [MSSM-RJD-MM-013, 3-(1-(4-fluorobenzyl)-1H-pyrazol-4-yl)-7,8-dihydroxy-2-(trifluoromethyl)-4H-chromen-4-one], the figures for the EC50 at E3 (CUL4), in the assay on cancer cells and on E3 (CUL1) were greater than 30 µM, greater than 20 µM and 7.2 µM, respectively.
Regarding `O=c1c(-c2cnn(Cc3ccc(C(F)(F)F)cc3)c2)c(C(F)(F)F)oc2c(O)c(O)ccc12` [MSSM-RJD-MM-014, 7,8-dihydroxy-2-(trifluoromethyl)-3-(1-(4-(trifluoromethyl)benzyl)-1H-pyrazol-4-yl)-4H-chromen-4-one], the EC50 was roughly 10 µM at E3 (CUL4), roughly 8 µM with cancer cells and 5.4 µM on E3 (CUL1).
In the same order, the values of `O=c1c(-c2cnn(Cc3ccccc3Cl)c2)c(C(F)(F)F)oc2c(O)c(O)ccc12` [MSSM-RJD-MM-015, 3-(1-(2-chlorobenzyl)-1H-pyrazol-4-yl)-7,8-dihydroxy-2-(trifluoromethyl)-4H-chromen-4-one] are greater than 10 µM, greater than 20 µM and 8.2 µM.
On to `COc1ccc2c(=O)c(-c3cnn(Cc4ccccc4F)c3)c(C(F)(F)F)oc2c1OC` [MSSM-RJD-MM-016, 3-(1-(2-fluorobenzyl)-1H-pyrazol-4-yl)-7,8-dimethoxy-2-(trifluoromethyl)-4H-chromen-4-one], for which the results for the EC50 on E3 (CUL4), in the assay with cancer cells and at E3 (CUL1) were greater than 10 µM, greater than 20 µM and greater than 100 µM, respectively.
For the compound `COc1ccc2c(=O)c(-c3cnn(Cc4cccc(C(F)(F)F)c4Cl)c3)c(C(F)(F)F)oc2c1OC` [MSSM-RJD-MM-020], the EC50 at E3 (CUL4) was greater than 10 µM; in the assay with cancer cells, greater than 20 µM; on E3 (CUL1) it was 53 µM.
On to `COc1ccc2c(=O)c(-c3cnn(Cc4cc(F)ccc4C(F)(F)F)c3)c(C(F)(F)F)oc2c1OC` [MSSM-RJD-MM-021, 3-(1-(5-fluoro-2-(trifluoromethyl)benzyl)-1H-pyrazol-4-yl)-7,8-dimethoxy-2-(trifluoromethyl)-4H-chromen-4-one], for which the EC50 is greater than 10 µM at E3 (CUL4), roughly 20 µM with cancer cells and 66 µM at E3 (CUL1).
In the case of `O=c1c(-c2cnn(Cc3ccccc3F)c2)c(C(F)(F)F)oc2c(O)c(O)ccc12` [MSSM-RJD-MM-022, 3-(1-(2-fluorobenzyl)-1H-pyrazol-4-yl)-7,8-dihydroxy-2-(trifluoromethyl)-4H-chromen-4-one], the EC50 was greater than 10 µM on E3 (CUL4), greater than 20 µM with cancer cells and 30 µM on E3 (CUL1).
Take `O=c1c(-c2cnn(Cc3cccc(Cl)c3)c2)c(C(F)(F)F)oc2c(O)c(O)ccc12` [MSSM-RJD-MM-023, 3-(1-(3-chlorobenzyl)-1H-pyrazol-4-yl)-7,8-dihydroxy-2-(trifluoromethyl)-4H-chromen-4-one]: the EC50 on E3 (CUL4) is greater than 10 µM; in the assay with cancer cells, 10 to 20 µM; at E3 (CUL1) it was 8.4 µM.
Turning to `O=c1c(-c2cnn(Cc3cccc(F)c3)c2)c(C(F)(F)F)oc2c(O)c(O)ccc12` [MSSM-RJD-MM-024, 3-(1-(3-fluorobenzyl)-1H-pyrazol-4-yl)-7,8-dihydroxy-2-(trifluoromethyl)-4H-chromen-4-one], the EC50 at E3 (CUL4) is greater than 10 µM; in the assay with cancer cells, 10 to 20 µM; at E3 (CUL1) it was 7.9 µM.
On to `Cc1cccc(Cn2cc(-c3c(C(F)(F)F)oc4c(O)c(O)ccc4c3=O)cn2)c1` [MSSM-RJD-MM-025, 7,8-dihydroxy-3-(1-(3-methylbenzyl)-1H-pyrazol-4-yl)-2-(trifluoromethyl)-4H-chromen-4-one], for which the values for the EC50 at E3 (CUL4), in the assay on cancer cells and at E3 (CUL1) were greater than 10 µM, 10 to 20 µM and 3.9 µM, respectively.
On to `O=c1c(-c2cnn(Cc3cc(C(F)(F)F)ccc3F)c2)c(C(F)(F)F)oc2c(O)c(O)ccc12` [MSSM-RJD-MM-026, 3-(1-(2-fluoro-5-(trifluoromethyl)benzyl)-1H-pyrazol-4-yl)-7,8-dihydroxy-2-(trifluoromethyl)-4H-chromen-4-one], for which the EC50 at E3 (CUL4) was greater than 10 µM; in the assay on cancer cells, greater than 20 µM; on E3 (CUL1), 6.5 µM.
In the case of `O=c1c(-c2cnn(Cc3cc(C(F)(F)F)ccc3Cl)c2)c(C(F)(F)F)oc2c(O)c(O)ccc12` [MSSM-RJD-MM-027, 3-(1-(2-chloro-5-(trifluoromethyl)benzyl)-1H-pyrazol-4-yl)-7,8-dihydroxy-2-(trifluoromethyl)-4H-chromen-4-one], the EC50 was greater than 10 µM at E3 (CUL4), 10 to 20 µM in the assay with cancer cells and 5.6 µM on E3 (CUL1).
As to `O=c1c(-c2cnn(Cc3cc(F)ccc3C(F)(F)F)c2)c(C(F)(F)F)oc2c(O)c(O)ccc12` [MSSM-RJD-MM-028], the EC50 was roughly 10 µM on E3 (CUL4), roughly 20 µM with cancer cells and 7.3 µM on E3 (CUL1).
Consider `O=c1c(Oc2ccccc2)c(C(F)(F)F)oc2c(O)c(O)c(Br)cc12` [[drawing 256]], for which the half-maximal inhibitory concentration (IC50) at ROC1-CUL1 CTD [1] (setting [3]) came to 3.3 µM.
